Measured values from patent US12048686B2, “Compositions and methods for activating NRF2-dependent gene expression” (The University of Chicago, priority 2018, dated 2024).
“Also recorded” adds a separate entry of the source.

Tests used:
[1] = LPS acute lung injury mouse model; type: in vivo; conditions: 50 mg/kg intraperitoneally
Experimental: FIG. 23. Mice treated with CBR-470-2 or vehicle (NaOH) IP and intratracheally instill LPS to induce acute lung injury.
Systemic CBR-470-2 treatment in acute lung injury mouse model reduces bronchial alveolar lavage (immune cells) cell TNF, IL1b and IL6 production (FIG. 23). C57/B6 Mice were treated with either CBR-470-2 (50 mg/kg dissolved in water and NaOH (1:1)) or vehicle (NaOH) intraperitoneally, and intratracheally instill 0.7 mg/kg of lipopolysaccharide (LPS) to induce […].

[2] = UVB skin damage model; conditions: mouse
Experimental: UVB Skin Damage Model. 32 5-week old Balb/c male mice were randomized into 4 groups of 8 animals such that each group had similar body weight means. Mice were prepared for removal of hair from their entire back two days prior to UVB exposure (day 3) by using an electric shaver and depilatory cream. On day 5, mice received exposure to UVB (200 mJ/cm^2) produced by a broad band UVB lamp (Dermapal UVB Rev 2) powered by a Kernel UV Phototherapy system. UVB exposure was confined to a rectangular area of ˜8 cm^2 by a lead shielding mask. UVB doses were confirmed by dosimeter measurements (Daavlin X96). Sham animals were shaved but received no UVB treatment. Mice were dosed from day 0 to study end at day 10 via oral gavage twice daily (CBR-470-2, 50 mg/kg BID PO; BARD, 3 mg/kg PO; Vehicle, 0.5% methyl cellulose/0.5% Tween80). Mice were monitored daily for body weight changes and erythema scoring from days 5 to 10. […] Blinded erythema scores were recorded by a blinded, trained investigator according to established in house scale. […]
Percent wounded area measurements. […] Red content corresponding to wounds was then quantified as a fraction of the whole imaging field and reported as percent wounded area.
Epidermal thickness measurements. […] 24 individual measurements of epidermal thickness from 8 sections spanning a 400 μm step distance were recorded per animal by a non-blinded, trained investigator. […]

[3] = test system: IMR32 cells; test: IMR32 viability with co-treatments (cell titer glo); type: cell-based
Experimental: FIG. 38. PGK1 toxicity can be rescued with metabolites that are involved with GSH biosynthesis and quenching of reactive oxygen species and methylglyoxal. […] IMR32 cells treated for 48 hr in presence of indicated drugs.
PGK1 toxicity can be rescued with metabolites that are involved with GSH biosynthesis and quenching of reactive oxygen species and methylglyoxal.
IMR32 cells were treated for 48 hrs with CBR-470-1 and/or BBGC at combinations of doses in a synergy matrix (FIG. 41). […] Viability measured using cell titer glo assay (Promega). Viability decreased at higher concentrations of CBR-470-1 and BBGC start at 5 uM. […] Sensitivity of cell lines to direct inhibition of GLO1 (which detoxifies MGO) is generally correlated with sensitivity to PGK1 inhibition with CBR-470-1-consistent with MGO buildup playing a role in toxicity.

O=C(O)CN[C@H]1CS(=O)(=O)C[C@@H]1S(=O)(=O)c1ccc(Cl)c(Cl)c1 [CBR-470-2]
IL6 gene expression, lung tissue ([1]; LPS): decreased gene expression of IL6
IL1b production, BAL cells ([1]; LPS 0.7 mg/kg intratracheally): decreased TNF, IL6, and IL1b production
IL6 production, BAL cells ([1]; LPS 0.7 mg/kg intratracheally): decreased TNF, IL6, and IL1b production; also recorded: decreased IL-6, and mRNA expression in immune cells (BAL cells)
TNF production, BAL cells ([1]; LPS 0.7 mg/kg intratracheally): decreased TNF, IL6, and IL1b production
NRF2 signaling in vivo (pharmacodynamic and efficacy data) [2]: capable of modulating NRF2 signaling in vivo

CC1(C)CC(O)CC(C)(C)N1[O] [Tempol]
effect of co-treatment with ROS scavenger on anti-proliferative effects of CBR-470-1 ([3]; co-treatment with CBR-470-1): does not effectively reduce anti-proliferative effects of CBR-470-1

CN(C)C(=N)N=C(N)N [metformin]
effect of co-treatment on viability effects of PGK1 inhibition ([3]; across cell lines, on average, IMR32 48 hr): do not strongly affect viability effects of PGK1 inhibition; also recorded: do not strongly effect viability effect of PGK1 inhibition
